Assay results as given in ChEMBL document CHEMBL4251607, “Antagonists of the adenosine A2A receptor based on a 2-arylbenzoxazole scaffold: Investigation of the C5- and C7-positions to enhance affinity” (Eur J Med Chem, 2018).
In brackets after ≈: the same amount, converted by molar mass.

Experiments:
Adenosine receptor A2a [1] = target: T1, Adenosine receptor A2a (Homo sapiens, UniProt P29274); experiment: Displacement of [3H]-ZM241385 from human adenosine A2A receptor expressed in CHO cell membranes after 1 hr by TopCount microplate scintillation counting method
[2] = Protein binding in human plasma at 10 uM after 4 hrs
[3] = Apparent permeability from apical to basolateral side in human Caco2 cells at 10 uM after 40 mins; conditions: Caco-2
[4] = Apparent permeability from basolateral to apical side in human Caco2 cells at 10 uM after 40 mins; conditions: Caco-2
[5] = Half life in human liver microsomes at 0.1 uM
SH-SY5Y [6] = experiment: Cytotoxicity against human SH-SY5Y cells assessed as cell death after 72 hrs by MTT assay; assay type: cell-based
physchem = conditions: PBS, pH 7.4
in vitro = conditions: human
Description: Intrinsic clearance in human liver microsomes at 0.1 uM

Adenosine receptor A2a [7] = target: T1, Adenosine receptor A2a; experiment: Antagonist activity at human adenosine A2A receptor expressed in HEK293 cell membranes assessed as inhibition of […]-induced [35S]GTPgammaS binding preincubated for 10 mins followed by […] addition by TopCount scintillation counting method; assay type: functional
Adenosine receptor A1 = target: T2, Adenosine receptor A1 (Homo sapiens, UniProt P30542); experiment: Displacement of [3H]DPCPX from human adenosine A1 receptor expressed in CHO cell membranes
T2 sequence (P30542 whole entry): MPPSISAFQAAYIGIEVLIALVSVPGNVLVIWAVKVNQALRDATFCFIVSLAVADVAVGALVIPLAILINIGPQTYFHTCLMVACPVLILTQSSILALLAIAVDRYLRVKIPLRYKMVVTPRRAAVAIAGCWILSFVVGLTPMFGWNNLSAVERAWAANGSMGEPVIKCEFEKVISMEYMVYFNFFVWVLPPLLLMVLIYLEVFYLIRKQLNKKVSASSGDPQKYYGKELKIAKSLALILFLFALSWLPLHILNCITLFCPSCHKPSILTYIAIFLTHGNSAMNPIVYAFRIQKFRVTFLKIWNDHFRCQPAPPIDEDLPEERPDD

[8] = target: T3, Adenosine receptor A2b (Homo sapiens) (UniProt P29275); experiment: Displacement of [3H]CPX from human adenosine A2B receptor expressed in HEK293 cell membranes at 10 uM relative to control
T3 sequence (whole entry): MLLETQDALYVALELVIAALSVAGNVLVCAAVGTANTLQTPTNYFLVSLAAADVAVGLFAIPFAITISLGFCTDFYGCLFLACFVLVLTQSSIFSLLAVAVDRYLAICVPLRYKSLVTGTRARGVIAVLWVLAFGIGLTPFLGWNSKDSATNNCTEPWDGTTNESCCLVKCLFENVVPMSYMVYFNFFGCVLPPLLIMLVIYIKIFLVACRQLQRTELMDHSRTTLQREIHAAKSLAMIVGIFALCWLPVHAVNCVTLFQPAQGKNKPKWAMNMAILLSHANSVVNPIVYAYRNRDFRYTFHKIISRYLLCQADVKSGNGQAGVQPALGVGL

[9] = target: T4, Adenosine receptor A3 (Homo sapiens) (UniProt P0DMS8); experiment: Displacement of [125I]ABMECA from human adenosine A3 receptor expressed in HEK293 cell membranes at 10 uM relative to control
T4 sequence (whole entry): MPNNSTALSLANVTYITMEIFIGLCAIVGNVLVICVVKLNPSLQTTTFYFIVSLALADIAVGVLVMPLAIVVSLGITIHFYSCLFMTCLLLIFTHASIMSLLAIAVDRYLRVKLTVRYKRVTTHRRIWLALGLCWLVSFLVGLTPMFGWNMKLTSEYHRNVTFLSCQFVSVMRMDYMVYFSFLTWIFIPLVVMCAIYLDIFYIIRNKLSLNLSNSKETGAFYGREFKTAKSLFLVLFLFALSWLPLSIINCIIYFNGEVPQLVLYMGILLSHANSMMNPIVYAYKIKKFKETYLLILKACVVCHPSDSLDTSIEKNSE

Adenosine receptor A2a [10] = target: T1, Adenosine receptor A2a; experiment: Displacement of [3H]-ZM241385 from human adenosine A2A receptor expressed in HEK293 cell membranes after 1 hr by scintillation counting method
SH-SY5Y [11] = experiment: Cytotoxicity against human SH-SY5Y cells assessed as cell death at 10 uM after 72 hrs by MTT assay relative to control; assay type: cell-based
Adenosine receptor A2a [12] = target: T1, Adenosine receptor A2a; experiment: Antagonist activity at adenosine A2A receptor (unknown origin)

T1 sequence (P29274 whole entry): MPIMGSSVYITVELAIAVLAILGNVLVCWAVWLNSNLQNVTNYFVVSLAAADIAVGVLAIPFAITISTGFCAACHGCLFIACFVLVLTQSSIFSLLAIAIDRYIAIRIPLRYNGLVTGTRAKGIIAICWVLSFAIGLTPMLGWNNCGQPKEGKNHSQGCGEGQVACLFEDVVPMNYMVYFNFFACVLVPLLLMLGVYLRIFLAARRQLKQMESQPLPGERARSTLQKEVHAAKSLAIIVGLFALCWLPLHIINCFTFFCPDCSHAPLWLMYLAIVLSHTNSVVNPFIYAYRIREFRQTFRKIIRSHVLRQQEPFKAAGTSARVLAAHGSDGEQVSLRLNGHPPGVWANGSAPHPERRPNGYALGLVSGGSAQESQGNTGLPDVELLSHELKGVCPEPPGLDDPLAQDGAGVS

For `O=C(CCN1CCOCC1)Nc1cc(-c2ccco2)c2oc(-c3ccco3)nc2c1`, the Ki (Adenosine receptor A2a [1]) was 90 nM, the fraction unbound at 4 h, 10 µM [2] was 0.02 and the Papp A→B at 40 min, 10 µM [3] was 11 ×10⁻⁶ cm/s. The Papp B→A at 40 min, 10 µM [4] was 1.6 ×10⁻⁶ cm/s, the half-life at 0.1 µM ([5]; microsomes) was > 1 h and the IC50 (SH-SY5Y [6]) was 77000 nM. The solubility at 24 h (physchem) was 173 µM (≈ 70.5 µg/mL) and the microsomal CLint at 0.1 µM (in vitro; microsomes) was < 115 µL/min/mg.

For `COc1ccc(-c2cc(NC(=O)CCN3CCc4ccccc4C3)cc3nc(-c4ccco4)oc23)cc1OC`, the Ki (Adenosine receptor A2a [1]) was > 10000 nM.

Work on `Nc1cc(-c2ccccc2)c2oc(-c3ccco3)nc2c1` yielded a Ki (Adenosine receptor A2a [1]) of 202 nM.

For `Nc1cc(-c2ccco2)c2oc(-c3ccco3)nc2c1`, the Ki (Adenosine receptor A2a [1]) was 40 nM, the IC50 (Adenosine receptor A2a [7]) was 70.6 nM and the fraction unbound at 4 h, 10 µM [2] was 0.1. For the same compound, the Papp A→B at 40 min, 10 µM [3] was 77 ×10⁻⁶ cm/s, the Papp B→A at 40 min, 10 µM [4] was 37 ×10⁻⁶ cm/s and the half-life at 0.1 µM ([5]; liver microsomes) was > 1 h. The IC50 (SH-SY5Y [6]) was 40000 nM, the Ki (Adenosine receptor A1) was 7.7 nM and the inhibition [8] was 94%. The inhibition [9] was 90%, the solubility at 24 h (physchem) was 31 µM (≈ 8.25 µg/mL) and the microsomal CLint at 0.1 µM (in vitro; liver microsomes) was < 115 µL/min/mg.

For `O=C(CCN1CCCCC1)Nc1cc(-c2ccco2)c2oc(-c3ccco3)nc2c1`, the Ki (Adenosine receptor A2a [1]) was 81 nM, the fraction unbound at 4 h, 10 µM [2] was 0.02 and the Papp A→B at 40 min, 10 µM [3] was 2.3 ×10⁻⁶ cm/s. The Papp B→A at 40 min, 10 µM [4] was 1.2 ×10⁻⁶ cm/s, the half-life at 0.1 µM ([5]; liver microsomes) was 0.683 h and the IC50 (SH-SY5Y [6]) was 9000 nM. For the same compound, the solubility at 24 h (physchem) was 165 µM (≈ 66.9 µg/mL) and the microsomal CLint at 0.1 µM (in vitro; liver microsomes) was 172 µL/min/mg.

`Nc1ccc2oc(-c3ccco3)nc2c1` showed a Ki (Adenosine receptor A2a [10]) of 10000 nM and a Ki (Adenosine receptor A2a [1]) of 10000 nM.

With `CCOCCOc1ccc(N2CCN(CCC(=O)Nc3cc(-c4ccco4)c4oc(-c5ccco5)nc4c3)CC2)cc1` the Ki (Adenosine receptor A2a [1]) was > 10000 nM.

Compound `COc1ccc(-c2cc(N)cc3nc(-c4ccco4)oc23)cc1OC` has a Ki (Adenosine receptor A2a [1]) of 90 nM.

In the case of `Nc1cc(N2CCOCC2)c2oc(-c3ccco3)nc2c1`, the Ki (Adenosine receptor A2a [1]) is reported as > 10000 nM.

Compound `Nc1cc(-c2ccccn2)c2oc(-c3ccco3)nc2c1` has a Ki (Adenosine receptor A2a [1]) of 135 nM.

With `O=C(CN1CCCCC1)Nc1cc(-c2ccco2)c2oc(-c3ccco3)nc2c1` the Ki (Adenosine receptor A2a [1]) was 210 nM and the IC50 (Adenosine receptor A2a [7]) was 486 nM.

`O=C(CCCN1CCCCC1)Nc1cc(-c2ccco2)c2oc(-c3ccco3)nc2c1` gave a Ki (Adenosine receptor A2a [1]) of 98 nM.

With `Nc1cc(NC(=O)CN2CCCCC2)c2oc(-c3ccco3)nc2c1` the Ki (Adenosine receptor A2a [1]) was > 10000 nM.

For `O=C(CCN1CCc2ccccc2C1)Nc1cc(-c2ccco2)c2oc(-c3ccco3)nc2c1`, the Ki (Adenosine receptor A2a [1]) was 30 nM, the fraction unbound at 4 h, 10 µM [2] was 0.001 and the Papp A→B at 40 min, 10 µM [3] was 0.2 ×10⁻⁶ cm/s. For the same compound, the half-life at 0.1 µM ([5]; liver microsomes) was > 1 h, the Activity (SH-SY5Y [11]) was 37% and the solubility at 24 h (physchem) was 8 µM (≈ 3.63 µg/mL). For the same compound, the microsomal CLint at 0.1 µM (in vitro; liver microsomes) was < 115 µL/min/mg.

`Nc1cc(-c2cccs2)c2oc(-c3ccco3)nc2c1` gave a Ki (Adenosine receptor A2a [1]) of 71 nM.

For `Nc1cc(NC(=O)CN2CCCCC2)cc2nc(-c3ccco3)oc12`, the Ki (Adenosine receptor A2a [1]) was 480 nM and the IC50 (Adenosine receptor A2a [7]) was 250 nM.

In the case of `Nc1cc(-c2ccc(C(F)(F)F)cc2)c2oc(-c3ccco3)nc2c1`, the Ki (Adenosine receptor A2a [1]) is reported as > 10000 nM.

In the case of `COCCOc1ccc(N2CCN(CCn3ncc4c3nc(N)n3nc(-c5ccco5)nc43)CC2)cc1` [PRELADENANT], the Ki (Adenosine receptor A2a [12]) is reported as 0.5 nM.

For `Cc1ccc(-c2cc(N)cc3nc(-c4ccco4)oc23)cc1`, the Ki (Adenosine receptor A2a [1]) was > 10000 nM.

`Nc1cc(-c2ccc(F)cc2)c2oc(-c3ccco3)nc2c1` gave a Ki (Adenosine receptor A2a [1]) of 438 nM.

In the case of `O=C(CN1CCCCC1)Nc1ccc2oc(-c3ccco3)nc2c1`, the Ki (Adenosine receptor A2a [10]) is reported as 1000 nM, the Ki (Adenosine receptor A2a [1]) is reported as 1000 nM and the Activity (SH-SY5Y [11]) is reported as 0%.
